Assay results: ChEMBL document CHEMBL1909046, “DrugMatrix in vitro pharmacology data”

Legend:
[1] = molecular target: Beta-1 adrenergic receptor (Homo sapiens, UniProt P08588); assay: DRUGMATRIX: Adrenergic beta1 radioligand binding (ligand: [125I] Cyanopindolol); assay type: cell membranes, CHO-K1, Membrane; conditions: cho-k1; Not Active = under 50% inhibition at 10 µM
[2] = DRUGMATRIX: Nicotinic Acetylcholine radioligand binding (ligand: [125I] Epibatidine); assay type: cell membranes, Membrane; conditions: imr-32; Not Active = under 50% inhibition at 10 µM
[3] = DRUGMATRIX: Sigma2 radioligand binding (ligand: [3H] Ifenprodil); assay type: cell membranes, Rattus norvegicus, Wistar, Brain, Membrane; conditions: Not Active = under 50% inhibition at 10 µM
[4] = molecular target: Kappa-type opioid receptor (Homo sapiens, UniProt P41145); assay: DRUGMATRIX: Opiate kappa (OP2, KOP) radioligand binding (ligand: [3H] Diprenorphine); assay type: cell membranes, HEK293, Membrane; conditions: hek293; Not Active = under 50% inhibition at 10 µM
[5] = molecular target: Matrix metalloproteinase-9 (Homo sapiens, UniProt P14780); assay type: cell-based;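 further: inhibition of isolated MMP-9 enzyme activity toward a synthetic peptide substrate, from the DrugMatrix protease screening panel; in other assays of this panel Not Active means under 50% inhibition at 10 µM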
[6] = molecular target: Mitogen-activated protein kinase 3 (Homo sapiens, UniProt P27361); assay: DRUGMATRIX: Protein Serine/Threonine Kinase, ERK1 enzyme inhibition (substrate: Myelin Basic Protein); parameters: species or system Escherichia coli; conditions: Not Active = under 50% inhibition at 10 µM
Mitogen-activated protein kinase 3, sequence (P27361 whole entry): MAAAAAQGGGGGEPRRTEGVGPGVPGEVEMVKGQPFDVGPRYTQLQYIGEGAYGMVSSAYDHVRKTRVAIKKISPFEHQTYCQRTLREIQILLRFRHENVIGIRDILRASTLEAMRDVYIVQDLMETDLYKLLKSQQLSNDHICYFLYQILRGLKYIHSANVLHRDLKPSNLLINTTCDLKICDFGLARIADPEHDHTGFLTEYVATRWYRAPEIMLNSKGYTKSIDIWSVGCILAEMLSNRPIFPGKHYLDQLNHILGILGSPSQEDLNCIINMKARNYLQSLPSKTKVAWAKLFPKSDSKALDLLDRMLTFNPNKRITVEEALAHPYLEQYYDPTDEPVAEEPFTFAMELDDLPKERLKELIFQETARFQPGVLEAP

Beta-1 adrenergic receptor, sequence (P08588 whole entry): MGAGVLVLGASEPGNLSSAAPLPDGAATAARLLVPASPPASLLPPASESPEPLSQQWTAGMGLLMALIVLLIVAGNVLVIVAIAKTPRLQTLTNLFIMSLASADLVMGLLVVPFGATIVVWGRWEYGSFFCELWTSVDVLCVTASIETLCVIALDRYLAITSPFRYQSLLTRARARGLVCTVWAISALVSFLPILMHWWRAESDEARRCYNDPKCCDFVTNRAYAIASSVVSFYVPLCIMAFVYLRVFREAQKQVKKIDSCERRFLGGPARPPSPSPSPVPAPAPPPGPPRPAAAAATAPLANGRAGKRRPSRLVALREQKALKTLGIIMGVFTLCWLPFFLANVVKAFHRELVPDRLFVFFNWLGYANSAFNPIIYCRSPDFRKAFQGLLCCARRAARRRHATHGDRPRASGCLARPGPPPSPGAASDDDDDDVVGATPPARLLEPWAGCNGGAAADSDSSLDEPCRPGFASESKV
Kappa-type opioid receptor, sequence (P41145 whole entry): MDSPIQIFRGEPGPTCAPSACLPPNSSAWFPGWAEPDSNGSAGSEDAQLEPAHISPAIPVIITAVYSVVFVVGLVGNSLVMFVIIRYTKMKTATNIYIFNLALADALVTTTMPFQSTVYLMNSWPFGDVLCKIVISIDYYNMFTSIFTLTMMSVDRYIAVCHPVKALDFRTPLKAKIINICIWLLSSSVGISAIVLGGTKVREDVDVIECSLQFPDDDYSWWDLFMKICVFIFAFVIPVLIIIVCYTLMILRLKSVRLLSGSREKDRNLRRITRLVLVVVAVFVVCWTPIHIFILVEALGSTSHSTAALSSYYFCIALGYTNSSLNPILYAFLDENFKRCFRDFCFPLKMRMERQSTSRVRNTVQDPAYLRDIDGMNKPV
Matrix metalloproteinase-9, sequence (P14780 whole entry): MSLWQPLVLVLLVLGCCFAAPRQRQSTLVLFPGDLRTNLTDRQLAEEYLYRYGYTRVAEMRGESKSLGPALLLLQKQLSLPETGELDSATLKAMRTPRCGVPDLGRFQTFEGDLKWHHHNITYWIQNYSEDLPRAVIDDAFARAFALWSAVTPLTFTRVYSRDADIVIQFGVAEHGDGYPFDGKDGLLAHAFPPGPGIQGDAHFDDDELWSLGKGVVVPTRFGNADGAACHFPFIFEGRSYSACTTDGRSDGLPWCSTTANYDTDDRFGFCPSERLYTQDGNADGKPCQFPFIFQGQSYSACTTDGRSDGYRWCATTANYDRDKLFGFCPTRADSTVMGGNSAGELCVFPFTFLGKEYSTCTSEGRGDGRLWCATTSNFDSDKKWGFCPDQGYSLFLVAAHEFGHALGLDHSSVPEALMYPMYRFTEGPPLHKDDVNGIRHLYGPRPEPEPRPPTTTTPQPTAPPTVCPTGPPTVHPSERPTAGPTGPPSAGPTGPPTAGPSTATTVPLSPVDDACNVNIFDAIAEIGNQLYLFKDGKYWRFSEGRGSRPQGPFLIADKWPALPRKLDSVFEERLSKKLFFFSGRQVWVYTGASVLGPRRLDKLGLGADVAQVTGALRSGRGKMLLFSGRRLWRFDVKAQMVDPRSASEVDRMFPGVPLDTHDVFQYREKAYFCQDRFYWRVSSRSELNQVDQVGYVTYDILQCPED

COc1ccc(C[C@H](N)C(=O)N[C@H]2[C@@H](O)[C@H](n3cnc4c(N(C)C)ncnc43)O[C@@H]2CO)cc1 [PUROMYCIN]
Not Active: IC50 [1] | IC50 [2] | Ki [2] | IC50 [3] | Ki [3] | IC50 [4] | IC50 [5] | IC50 [6]

CC(CN1c2ccccc2Sc2ccccc21)N(C)C (stereo not drawn) [PROMETHAZINE]
Not Active: IC50 [1] | IC50 [2] | Ki [2] | IC50 [3] | Ki [3] | IC50 [4] | IC50 [5] | IC50 [6]

NCC(CC(=O)O)c1ccc(Cl)cc1 (stereo not drawn) [BACLOFEN]
Not Active: IC50 [1] | IC50 [2] | Ki [2] | IC50 [3] | Ki [3] | IC50 [4] | IC50 [5] | IC50 [6]

CN(CCOc1ccc(C[C@H](Nc2ccccc2C(=O)c2ccccc2)C(=O)O)cc1)c1ccccn1
Not Active: IC50 [1] | IC50 [2] | Ki [2] | IC50 [3] | Ki [3] | IC50 [4] | IC50 [5] | IC50 [6]

Cl.NC[C@H]1CC[C@H](C(=O)Oc2ccc(CCC(=O)O)cc2)CC1 [CETRAXATE HYDROCHLORIDE]
Not Active: IC50 [1] | IC50 [2] | Ki [2] | IC50 [3] | Ki [3] | IC50 [4] | IC50 [5] | IC50 [6]

C[C@H](C(=O)O)c1ccc2oc(-c3ccc(F)cc3)nc2c1 [FLUNOXAPROFEN]
Not Active: IC50 [1] | IC50 [2] | Ki [2] | IC50 [3] | Ki [3] | IC50 [4] | IC50 [5] | IC50 [6]

CCN1CCN(c2cc3c(cc2F)c(=O)c(C(=O)O)cn3C2CC2)CC1 [ENROFLOXACIN]
Not Active: IC50 [1] | IC50 [2] | Ki [2] | IC50 [3] | Ki [3] | IC50 [4] | IC50 [5] | IC50 [6]

C[C@]12CC[C@@H](O)C[C@@H]1CC[C@@H]1[C@@H]2CC[C@]2(C)C(=O)CC[C@@H]12 [ANDROSTERONE]
Not Active: IC50 [1] | IC50 [2] | Ki [2] | IC50 [3] | Ki [3] | IC50 [4] | Ki [5] | IC50 [6]

O=C(NCCN1CCOCC1)c1ccc(Cl)cc1 [MOCLOBEMIDE]
Not Active: IC50 [1] | IC50 [2] | Ki [2] | IC50 [3] | Ki [3] | IC50 [4] | IC50 [5] | IC50 [6]

NC(=O)CN1CCCC1=O
Not Active: IC50 [1] | IC50 [2] | Ki [2] | IC50 [3] | Ki [3] | IC50 [4] | IC50 [5] | IC50 [6]

Oc1ccccc1 [PHENOL]
Not Active: IC50 [1] | IC50 [2] | Ki [2] | IC50 [3] | Ki [3] | IC50 [4] | IC50 [5] | IC50 [6]

CCO [ALCOHOL]
Not Active: IC50 [1] | IC50 [2] | Ki [2] | IC50 [3] | Ki [3] | IC50 [4] | IC50 [5] | IC50 [6]

COc1ccc(Cl)cc1C(=O)NCCc1ccc(S(=O)(=O)NC(=O)NC2CCCCC2)cc1 [GLYBURIDE]
Not Active: IC50 [1] | IC50 [2] | Ki [2] | IC50 [3] | Ki [3] | IC50 [4] | IC50 [5] | IC50 [6]

OC[C@H]1O[C@@H]2O[C@H]3[C@H](O)[C@@H](O)[C@@H](O[C@H]4[C@H](O)[C@@H](O)[C@@H](O[C@H]5[C@H](O)[C@@H](O)[C@@H](O[C@H]6[C@H](O)[C@@H](O)[C@@H](O[C@H]7[C@H](O)[C@@H](O)[C@@H](O[C@H]8[C@H](O)[C@@H](O)[C@@H](O[C@H]1[C@H](O)[C@H]2O)O[C@@H]8CO)O[C@@H]7CO)O[C@@H]6CO)O[C@@H]5CO)O[C@@H]4CO)O[C@@H]3CO [BETADEX]
Not Active: IC50 [1] | IC50 [2] | Ki [2] | IC50 [3] | Ki [3] | IC50 [4] | IC50 [5] | IC50 [6]

NC(N)=Nc1nc(CSCCC(N)=NS(N)(=O)=O)cs1 [FAMOTIDINE]
Not Active: IC50 [1] | IC50 [2] | Ki [2] | IC50 [3] | Ki [3] | IC50 [4] | IC50 [5] | IC50 [6]

COc1cc(NC(C)CCCN)c2ncccc2c1 (stereo not drawn) [PRIMAQUINE]
Not Active: IC50 [1] | IC50 [2] | Ki [2] | IC50 [3] | Ki [3] | IC50 [4] | IC50 [5] | IC50 [6]
